Reference: US5633003A, “Use of intratracheally administered hyaluronic acid to ameliorate emphysema” (priority 1994, dated 1997)
Entries after “also recorded” stand apart in the source; their conditions may differ.

Columns and labels:
[1] = system: elastase-induced emphysema; assay: Hyaluronic acid-elastase model, mean linear intercept measurement of air-space size; assay type: in vivo, Syrian hamsters; conditions: 1 week
Method: (§1) To test the possibility that addition of hyaluronic acid may inhibit air-space enlargement, Syrian hamsters were instilled with elastase intratracheally, then immediately given 1 mg of bovine tracheal hyaluronic acid by the same route. Controls received elastase followed by saline alone. Changes in air-space size were evaluated one week later, using the mean linear intercept method (8). To determine whether hyaluronic acid has elastase inhibitory capacity, it was incubated with pancreatic elastase in the presence of ^3 H-elastin. Controls contained elastase and ^3 H-elastin alone.
Following intratracheal administration of 20 units of pancreatic elastase (see above procedure), hamsters immediately received, by the same route, 1 mg of bovine tracheal hyaluronic acid (Sigma Chemical Co., St. Louis, Mo.), dissolved in 0.2 ml of saline solution.

pancreatic elastase = assay: Measurement of elastase inhibitory capacity of hyaluronic acid (release of radioactivity from 3H-elastin); assay type: biochemical, porcine; conditions: 1, 10, 100 μg hyaluronic acid, 1 μg elastase, pH 8.0, 37° C., 22 hours, preincubated with elastase or 3H-elastin
Method: as §1
Various amounts of hyaluronic acid (1,10,100 μg) were incubated with pancreatic elastase (1 μg) and ^3 H-elastin in 0.2M Tris buffer, pH 8.0, at 37° C. for 22 hours (7,10). Hyaluronic acid was preincubated with either elastase or ^3 H-elastin for 10 minutes prior to the start of the assay. This was done to allow for the possible binding of one component to another. Following incubation, the samples were filtered, combined with scintillation fluid, and measured for radioactivity. The results were adjusted for nonspecific release of radioactivity and expressed as net counts per minute.

lungs = conditions: hamster, in vivo
Excerpt: One week after completion of the enzyme instillments, the hamsters were sacrificed by intraperitoneal injection of chloral hydrate. Their lungs were then fixed in-situ by inserting a catheter into the tracheas and allowing 10% neutral-buffered formalin to inflate the tissues at a pressure of 20 cm H2 O. Two hours later, the catheter was removed and the trachea was tied off to minimize deflation. both the lungs and heart were removed from the chest as a single block and additionally fixed in 10% formalin for several days. The lungs were then dissected free of extrapulmonary structures, sectioned randomly, and entirely submitted for histological processing.

[2] = system: elastase-induced emphysema; assay: Hyaluronidase-elastase model, mean linear intercept measurement of air-space size; assay type: in vivo, Syrian hamsters
Method: To determine the effects of hyaluronidase on elastase-induced emphysema, Syrian hamsters received intratracheal instillments of bovine testicular hyaluronidase and, 24 hours later, porcine pancreatic elastase. Controls received: 1) saline followed by elastase, 2) elastase followed by hyaluronidase, and 3) saline followed by saline. Air-space enlargement was measured one week later, using the mean linear intercept method (8). Changes in lung elastin content were determined at 24 and 48 hours by quantifying elastin-specific desmosine and isodesmosine cross-links.
Female Syrian hamsters, weighing approximately 100 gms each, were anesthetized by intramuscular injection of ketamine hydrochloride (10 mg in 0.1 ml). The animals were then placed on a rodent surgical table (Harvard Bioscience, South Natick, Mass.) and restrained with elastic bands. The neck fur was shaved with a scalpel and a 2-cm vertical incision was made through the skin and subcutaneous fat. The underlying muscle was then cut to expose the trachea. A 26-gauge needle mounted on a 1-ml syringe was placed inside the tracheal lumen and 900 unite of highly purified bovine testicular hyaluronidase (Sigma Chemical Co., St. Louis, Mo.), dissolved in 0.3 ml normal saline solution, were delivered to the lungs in small increments. Twenty-four hours later, 20 units of porcine pancreatic elastase (Elastin Products, Pacific, Mo.), dissolved in 0.2 ml saline solution, were instilled by the same method. The incision was then closed with several sutures.

lung air-space = conditions: hyaluronidase alone; cited from earlier work
3H-elastin = conditions: incubation with 3H-elastin; cited from earlier work

hyaluronic acid
mean linear intercept (air-space size) ([1]; 1 mg hyaluronic acid intratracheally immediately after 20 units elastase, control elastase then saline 122 um): 82 um | air-space enlargement ([1]; hyaluronic acid intratracheally immediately after elastase, vs elastase followed by saline): significantly reduced the amount of air-space enlargement; also recorded: marked decrease in air-space enlargement; also recorded: marked reduction in air-space enlargement | pancreatic elastase activity (release of radioactivity from 3H-elastin) (pancreatic elastase): no elastase inhibitory capacity; also recorded: did not reduce ^3 H-elastin breakdown, but instead caused a marked increase in the release of radioactivity; also recorded: does not prevent elastin from being degraded by elastase in-vitro | pancreatic elastase activity (release of radioactivity from 3H-elastin) (pancreatic elastase; listed as Hyaluronic acid): enhanced, rather than inhibited, pancreatic elastase activity | histological changes of the lungs (lungs): No specific changes

elastase: porcine pancreatic elastase (Elastin Products), used to induce emphysema
mean linear intercept (air-space size) ([1]; elastase followed immediately by saline (model control)): 122 um | mean linear intercept value ([2]; saline followed 24 hours later by elastase 20 units (model control), 1 week): 100 um

hyaluronidase
mean linear intercept value ([2]; elastase followed by hyaluronidase (reversed order), 1 week): 95.3 um | mean linear intercept value ([2]; hyaluronidase 900 units intratracheally 24 hours prior to elastase, 1 week): 128 um | effect of hyaluronidase on air-space enlargement ([2]; order of enzyme administration reversed (elastase then hyaluronidase)): abolished this effect; also recorded: extinguished | elastase-induced air-space enlargement ([2]; pre-treatment with hyaluronidase, then elastase, 1 week): significantly increased elastase-induced air-space enlargement; also recorded: markedly enhanced | air-space dilation (lung air-space): does not cause significant air-space dilation | elastase activity of the hyaluronidase preparation (3H-elastin): no elastase activity
